Reference: ChEMBL document CHEMBL3994622, “Design and synthesis of new RAF kinase-inhibiting antiproliferative quinoline derivatives. Part 2: Diarylurea derivatives” (Eur J Med Chem, 2017)

Assays:
Format in all cases: functional
SR = assay: Growth inhibition of human SR cells assessed as cell growth at 0.01 uM incubated for 48 hrs by sulforhodamine B assay relative to control; conditions: read-out: Activity
HOP-92 = assay: Growth inhibition of human HOP92 cells assessed as cell growth at 0.01 uM incubated for 48 hrs by sulforhodamine B assay relative to control; conditions: HOP-92, 48 h, read-out: Activity
SN12C [1] = assay: Growth inhibition of human SN12C cells assessed as cell growth at 0.01 uM incubated for 48 hrs by sulforhodamine B assay relative to control; conditions: read-out: Activity
MCF7 = assay: Growth inhibition of human MCF7 cells assessed as cell growth at 0.01 uM incubated for 48 hrs by sulforhodamine B assay relative to control; conditions: MCF7, 48 h, read-out: Activity
T47D [2] = assay: Growth inhibition of human T47D cells assessed as cell growth at 0.01 uM incubated for 48 hrs by sulforhodamine B assay relative to control; conditions: read-out: Activity
NCI-H460 [3] = assay: Growth inhibition of human NCI-H460 cells assessed as cell growth at 0.1 uM incubated for 48 hrs by sulforhodamine B assay relative to control; conditions: NCI-H460, 48 h, read-out: Activity
SN12C [4] = assay: Growth inhibition of human SN12C cells assessed as cell growth at 0.1 uM incubated for 48 hrs by sulforhodamine B assay relative to control; conditions: read-out: Activity
K562 [5] = assay: Growth inhibition of human K562 cells assessed as cell growth at 1 uM incubated for 48 hrs by sulforhodamine B assay relative to control; conditions: K562, 48 h, read-out: Activity
Hs-578T = assay: Growth inhibition of human Hs 578T cells assessed as cell growth at 1 uM incubated for 48 hrs by sulforhodamine B assay relative to control; conditions: read-out: Activity
SF-268 [6] = assay: Growth inhibition of human SF268 cells assessed as cell growth at 10 uM incubated for 48 hrs by sulforhodamine B assay relative to control; conditions: SF-268, 48 h, read-out: Activity
Malme-3M = assay: Growth inhibition of human MALME-3M cells assessed as cell growth at 10 uM incubated for 48 hrs by sulforhodamine B assay relative to control; conditions: read-out: Activity
OVCAR-4 [7] = assay: Growth inhibition of human OVCAR4 cells assessed as cell growth at 10 uM incubated for 48 hrs by sulforhodamine B assay relative to control; conditions: OVCAR-4, 48 h, read-out: Activity
ACHN = assay: Growth inhibition of human ACHN cells assessed as cell growth at 10 uM incubated for 48 hrs by sulforhodamine B assay relative to control; conditions: read-out: Activity
SN12C [8] = assay: Growth inhibition of human SN12C cells assessed as cell growth at 10 uM incubated for 48 hrs by sulforhodamine B assay relative to control; conditions: read-out: Activity
DU-145 [9] = assay: Growth inhibition of human DU145 cells assessed as cell growth at 10 uM incubated for 48 hrs by sulforhodamine B assay relative to control; conditions: DU-145, 48 h, read-out: Activity
RPMI-8226 = assay: Growth inhibition of human RPMI8226 cells assessed as cell growth at 100 uM incubated for 48 hrs by sulforhodamine B assay relative to control; conditions: RPMI-8226, 48 h, read-out: Activity
A549 = assay: Growth inhibition of human A549/ATCC cells assessed as cell growth at 100 uM incubated for 48 hrs by sulforhodamine B assay relative to control; conditions: A549, 48 h, read-out: Activity
EKVX = assay: Growth inhibition of human EKVX cells assessed as cell growth at 100 uM incubated for 48 hrs by sulforhodamine B assay relative to control; conditions: read-out: Activity
SNB-19 = assay: Growth inhibition of human SNB19 cells assessed as cell growth at 100 uM incubated for 48 hrs by sulforhodamine B assay relative to control; conditions: SNB-19, 48 h, read-out: Activity
OVCAR-4 [10] = assay: Growth inhibition of human OVCAR4 cells assessed as cell growth at 100 uM incubated for 48 hrs by sulforhodamine B assay relative to control; conditions: OVCAR-4, 48 h, read-out: Activity
T47D [11] = assay: Growth inhibition of human T47D cells assessed as cell growth at 100 uM incubated for 48 hrs by sulforhodamine B assay relative to control; conditions: read-out: Activity
HCT-116 = assay: Growth inhibition of human HCT116 cells assessed as cell growth at 0.003 uM incubated for 48 hrs by sulforhodamine B assay relative to control; conditions: HCT-116, 48 h, read-out: Activity
T47D [12] = assay: Growth inhibition of human T47D cells assessed as cell growth at 0.003 uM incubated for 48 hrs by sulforhodamine B assay relative to control; conditions: read-out: Activity
NCI-H460 [13] = assay: Growth inhibition of human NCI-H460 cells assessed as cell growth at 0.03 uM incubated for 48 hrs by sulforhodamine B assay relative to control; conditions: NCI-H460, 48 h, read-out: Activity
OVCAR-3 = assay: Growth inhibition of human OVCAR3 cells assessed as cell growth at 0.03 uM incubated for 48 hrs by sulforhodamine B assay relative to control; conditions: OVCAR-3, 48 h, read-out: Activity
OVCAR-4 [14] = assay: Growth inhibition of human OVCAR4 cells assessed as cell growth at 0.03 uM incubated for 48 hrs by sulforhodamine B assay relative to control; conditions: OVCAR-4, 48 h, read-out: Activity
UO-31 = assay: Growth inhibition of human UO31 cells assessed as cell growth at 0.03 uM incubated for 48 hrs by sulforhodamine B assay relative to control; conditions: UO-31, 48 h, read-out: Activity
MDA-MB-231 = assay: Growth inhibition of human MDA-MB-231 cells assessed as cell growth at 0.03 uM incubated for 48 hrs by sulforhodamine B assay relative to control; conditions: MDA-MB-231, 48 h, read-out: Activity
K562 [15] = assay: Growth inhibition of human K562 cells assessed as cell growth at 0.3 uM incubated for 48 hrs by sulforhodamine B assay relative to control; conditions: K562, 48 h, read-out: Activity
DU-145 [16] = assay: Growth inhibition of human DU145 cells assessed as cell growth at 0.3 uM incubated for 48 hrs by sulforhodamine B assay relative to control; conditions: DU-145, 48 h, read-out: Activity
HL-60(TB) = assay: Growth inhibition of human HL-60(TB) cells assessed as cell growth at 3 uM incubated for 48 hrs by sulforhodamine B assay relative to control; conditions: HL-60, 48 h, read-out: Activity
SF-268 [17] = assay: Growth inhibition of human SF268 cells assessed as cell growth at 3 uM incubated for 48 hrs by sulforhodamine B assay relative to control; conditions: SF-268, 48 h, read-out: Activity
OVCAR-5 = assay: Growth inhibition of human OVCAR5 cells assessed as cell growth at 3 uM incubated for 48 hrs by sulforhodamine B assay relative to control; conditions: OVCAR-5, 48 h, read-out: Activity
786-0 = assay: Growth inhibition of human 786-0 cells assessed as cell growth at 3 uM incubated for 48 hrs by sulforhodamine B assay relative to control; conditions: 786-0, 48 h, read-out: Activity
NCI/ADR-RES = assay: Growth inhibition of human NCI/ADR-RES cells assessed as cell growth at 30 uM incubated for 48 hrs by sulforhodamine B assay relative to control; conditions: read-out: Activity
NCI-H322M = assay: Growth inhibition of human NCI-H322M cells assessed as cell growth at 10 uM incubated for 48 hrs by sulforhodamine B assay relative to control; conditions: read-out: Activity

| Compound | growth at 0.01 µM (SR) [%] | growth at 0.01 µM (HOP-92) [%] | growth at 0.01 µM (SN12C [1]) [%] | growth at 0.01 µM (MCF7) [%] | growth at 0.01 µM (T47D [2]) [%] | growth at 0.1 µM (NCI-H460 [3]) [%] | growth at 0.1 µM (SN12C [4]) [%] | growth at 1 µM (K562 [5]) [%] | growth at 1 µM (Hs-578T) [%] | growth at 10 µM (SF-268 [6]) [%] | growth at 10 µM (Malme-3M) [%] | growth at 10 µM (OVCAR-4 [7]) [%] | growth at 10 µM (ACHN) [%] | growth at 10 µM (SN12C [8]) [%] | growth at 10 µM (DU-145 [9]) [%] | growth at 100 µM (RPMI-8226) [%] | growth at 100 µM (A549) [%] | growth at 100 µM (EKVX) [%] | growth at 100 µM (SNB-19) [%] | growth at 100 µM (OVCAR-4 [10]) [%] | also measured |
| --- | --- | --- | --- | --- | --- | --- | --- | --- | --- | --- | --- | --- | --- | --- | --- | --- | --- | --- | --- | --- | --- |
| COc1cc2cc(Oc3ccc(NC(=O)Nc4ccc(Cl)c(Cl)c4)cc3)c(C)nc2cc1OC | 107 | 95 | 93 | 95 | 100 | 103 | 95 | 88 | 113 | 44 | -14 | -8 | 5 | 19 | 19 | -47 | -100 | -36 | -41 | -85 | growth at 100 µM (T47D [11]): -54% |
| COc1cc2cc(Oc3ccc(NC(=O)Nc4ccc(Cl)c(C(F)(F)F)c4)cc3)c(C)nc2cc1OC |  |  |  |  |  |  |  |  |  |  |  |  |  |  |  |  |  |  |  |  | growth at 0.003 µM (HCT-116): 100%; growth at 0.003 µM (T47D [12]): 94%; growth at 0.03 µM (NCI-H460 [13]): 105%; growth at 0.03 µM (OVCAR-3): 91%; growth at 0.03 µM (OVCAR-4 [14]): 96%; growth at 0.03 µM (UO-31): 89%; growth at 0.03 µM (MDA-MB-231): 92%; growth at 0.3 µM (K562 [15]): 93%; growth at 0.3 µM (DU-145 [16]): 95%; growth at 3 µM (HL-60(TB)): -2%; growth at 3 µM (SF-268 [17]): 26%; growth at 3 µM (OVCAR-5): 32%; growth at 3 µM (786-0): 16%; growth at 30 µM (NCI/ADR-RES): -39% |
| COc1cc2cc(Oc3ccc(NC(=O)Nc4cc(C(F)(F)F)cc(C(F)(F)F)c4)cc3)c(C)nc2cc1OC | 92 | 93 | 96 | 85 | 86 | 107 | 100 | 32 | 101 | -61 | -46 | -31 | -57 | -75 | -2 | -34 | -85 | -94 | -79 | -52 | growth at 10 µM (NCI-H322M): 14.9%; growth at 100 µM (T47D [11]): -82% |
| Cc1nc2cc(O)c(O)cc2cc1Oc1ccc(NC(=O)Nc2ccc(Cl)c(Cl)c2)cc1 |  |  |  |  |  |  |  |  |  |  |  |  |  |  |  |  |  |  |  |  | growth at 10 µM (NCI-H322M): 94%; growth at 0.003 µM (HCT-116): 93%; growth at 0.003 µM (T47D [12]): 102%; growth at 0.03 µM (NCI-H460 [13]): 99%; growth at 0.03 µM (OVCAR-3): 107%; growth at 0.03 µM (OVCAR-4 [14]): 98%; growth at 0.03 µM (UO-31): 98%; growth at 0.03 µM (MDA-MB-231): 115%; growth at 0.3 µM (K562 [15]): 123%; growth at 0.3 µM (DU-145 [16]): 106%; growth at 3 µM (HL-60(TB)): 106%; growth at 3 µM (SF-268 [17]): 85%; growth at 3 µM (OVCAR-5): 119%; growth at 3 µM (786-0): 98%; growth at 30 µM (NCI/ADR-RES): 3% |
